Columns and labels:
[1] = Antagonist activity at human alpha6-alpha3/beta2/beta3 V273S mutant nAChR expressed in HEK293 cells assessed as nicotine-induced intracellular calcium release incubated for 15 mins by FLIPR analysis; assay type: cell-based; conditions: HEK293, 0.25 h
[2] = target: Neuronal acetylcholine receptor; alpha3/beta4 (Homo sapiens, UniProt P30926+P32297); assay: Antagonist activity at human alpha3/beta4 nAChR expressed in HEK293 cells assessed as nicotine-induced intracellular calcium release incubated for 15 mins by FLIPR analysis; assay type: cell-based
[3] = target: Neuronal acetylcholine receptor; alpha4/beta2 (Homo sapiens, UniProt P17787+P43681); assay: Antagonist activity at human alpha4/beta2 nAChR expressed in HEK293 cells assessed as nicotine-induced intracellular calcium release incubated for 15 mins by FLIPR analysis; assay type: cell-based
[4] = Metabolic stability in rat liver microsome assessed as clearance at 10 uM incubated upto 2 hrs by LC-MS/MS analysis; assay type: ADME; conditions: liver microsomes, read-out: CLH
[5] = Metabolic stability in human liver microsome assessed as clearance at 10 uM incubated upto 2 hrs by LC-MS/MS analysis; assay type: ADME; conditions: liver microsomes, read-out: CLH
[6] = Volume of distribution at steady state in Sprague-Dawley rat at 0.5 mg/kg, iv by LC-MS/MS analysis; assay type: ADME, organism-based; conditions: in vivo, read-out: Vdss
[7] = Metabolic stability in human liver microsome assessed as clearance preincubated for 60 mins followed by NADPH addition and measured after 60 mins by LC-MS/MS analysis; assay type: ADME; conditions: liver microsomes, time 120 min, read-out: CLH
[8] = Intrinsic clearance in Sprague-Dawley rat at 0.5 mg/kg, iv by LC-MS/MS analysis; assay type: ADME, organism-based; conditions: in vivo
[9] = Metabolic stability in rat liver microsome assessed as clearance preincubated for 60 mins followed by NADPH addition and measured after 60 mins by LC-MS/MS analysis; assay type: ADME; conditions: liver microsomes, time 120 min, read-out: CLH
[10] = Drug exposure in Sprague-Dawley rat brain at 3 mg/kg, po measured for 2 hrs by LC-MS/MS analysis; assay type: ADME, organism-based; conditions: read-out: Drug uptake
[11] = Oral bioavailability in Sprague-Dawley rat 3 mg/kg by LC-MS/MS analysis; assay type: ADME, organism-based; conditions: in vivo

Sequence of Neuronal acetylcholine receptor; alpha4/beta2 (P17787 whole entry): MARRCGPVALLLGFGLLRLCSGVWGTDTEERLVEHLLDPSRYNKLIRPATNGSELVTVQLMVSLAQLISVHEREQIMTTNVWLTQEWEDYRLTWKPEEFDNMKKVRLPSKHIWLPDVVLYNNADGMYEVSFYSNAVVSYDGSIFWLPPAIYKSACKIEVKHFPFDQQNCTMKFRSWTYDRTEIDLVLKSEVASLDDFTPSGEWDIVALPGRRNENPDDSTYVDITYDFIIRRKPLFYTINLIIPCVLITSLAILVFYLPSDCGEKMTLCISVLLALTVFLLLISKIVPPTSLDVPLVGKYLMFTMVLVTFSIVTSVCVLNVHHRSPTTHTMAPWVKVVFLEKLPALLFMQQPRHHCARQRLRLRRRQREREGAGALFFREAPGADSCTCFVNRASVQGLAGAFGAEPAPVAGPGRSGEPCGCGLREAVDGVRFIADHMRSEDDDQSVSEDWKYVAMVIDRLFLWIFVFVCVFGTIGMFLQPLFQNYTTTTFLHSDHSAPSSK
Sequence of Neuronal acetylcholine receptor; alpha4/beta2 (P43681 whole entry): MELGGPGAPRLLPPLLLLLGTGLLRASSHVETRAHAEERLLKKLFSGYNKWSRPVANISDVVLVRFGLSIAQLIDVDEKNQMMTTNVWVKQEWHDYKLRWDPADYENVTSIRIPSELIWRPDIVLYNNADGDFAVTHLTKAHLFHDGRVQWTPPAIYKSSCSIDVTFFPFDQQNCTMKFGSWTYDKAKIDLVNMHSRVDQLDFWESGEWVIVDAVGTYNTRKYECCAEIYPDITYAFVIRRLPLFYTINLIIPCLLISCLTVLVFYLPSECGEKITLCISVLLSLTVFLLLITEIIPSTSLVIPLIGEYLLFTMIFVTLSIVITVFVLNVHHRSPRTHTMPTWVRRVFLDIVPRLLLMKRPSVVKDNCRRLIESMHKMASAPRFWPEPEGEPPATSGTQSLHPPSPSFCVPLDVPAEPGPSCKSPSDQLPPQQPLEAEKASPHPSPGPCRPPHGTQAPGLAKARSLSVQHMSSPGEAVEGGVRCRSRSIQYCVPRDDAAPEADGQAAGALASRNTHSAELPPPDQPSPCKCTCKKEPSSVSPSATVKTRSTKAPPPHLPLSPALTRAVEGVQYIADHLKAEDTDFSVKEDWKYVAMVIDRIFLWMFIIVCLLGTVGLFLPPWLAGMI
Sequence of Neuronal acetylcholine receptor; alpha3/beta4 (P30926 whole entry): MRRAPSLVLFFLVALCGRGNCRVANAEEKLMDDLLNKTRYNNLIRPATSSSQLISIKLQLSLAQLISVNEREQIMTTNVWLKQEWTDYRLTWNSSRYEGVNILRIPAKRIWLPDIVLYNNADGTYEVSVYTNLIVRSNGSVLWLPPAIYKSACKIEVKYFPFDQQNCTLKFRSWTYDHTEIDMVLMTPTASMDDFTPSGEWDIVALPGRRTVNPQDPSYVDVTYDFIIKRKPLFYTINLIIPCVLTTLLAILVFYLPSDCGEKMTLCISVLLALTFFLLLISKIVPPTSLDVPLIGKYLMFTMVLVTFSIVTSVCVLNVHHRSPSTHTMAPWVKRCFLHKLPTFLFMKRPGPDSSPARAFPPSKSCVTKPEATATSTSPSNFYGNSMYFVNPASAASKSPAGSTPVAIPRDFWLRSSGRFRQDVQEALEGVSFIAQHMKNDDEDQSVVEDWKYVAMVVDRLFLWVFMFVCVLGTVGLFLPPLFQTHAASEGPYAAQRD
Sequence of Neuronal acetylcholine receptor; alpha3/beta4 (P32297 whole entry): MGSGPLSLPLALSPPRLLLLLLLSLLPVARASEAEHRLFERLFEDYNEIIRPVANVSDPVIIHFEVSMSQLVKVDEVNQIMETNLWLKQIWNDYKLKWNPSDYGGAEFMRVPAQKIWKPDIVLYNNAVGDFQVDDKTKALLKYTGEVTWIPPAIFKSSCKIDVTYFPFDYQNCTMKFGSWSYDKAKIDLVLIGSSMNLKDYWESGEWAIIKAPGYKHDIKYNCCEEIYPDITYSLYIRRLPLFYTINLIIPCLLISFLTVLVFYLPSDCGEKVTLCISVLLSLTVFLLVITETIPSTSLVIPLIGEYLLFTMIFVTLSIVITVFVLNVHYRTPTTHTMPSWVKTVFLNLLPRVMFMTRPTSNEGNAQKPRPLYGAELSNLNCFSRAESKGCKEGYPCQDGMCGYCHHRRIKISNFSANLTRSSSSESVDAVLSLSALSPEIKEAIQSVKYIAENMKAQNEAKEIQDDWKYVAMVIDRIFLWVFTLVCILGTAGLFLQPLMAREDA

| SMILES | IC50 [1] | IC50 [2] | IC50 [3] | microsomal CLint at 10 µM [4] | microsomal CLint at 10 µM [5] | Vd [6] | microsomal CLint [7] | CL [8] | microsomal CLint [9] | concentration at 2 h [10] | bioavailability [11] |
| --- | --- | --- | --- | --- | --- | --- | --- | --- | --- | --- | --- |
| CN1CCC[C@@H](NC(=O)c2cc(-c3ccc(C(F)(F)F)cc3Cl)n(C)n2)C1 | 76 nM | – | – | – | – | – | – | – | – | – | – |
| COc1ccc(-c2cc(C(=O)N[C@H]3CCCN(C)C3)nn2C)cc1 | 194 nM | > 10000 nM | 2620 nM | – | – | – | – | – | – | – | – |
| [2H]C([2H])([2H])Oc1ccc(-c2cc(C(=O)N[C@H]3CCCN(C([2H])([2H])[2H])C3)nn2C([2H])([2H])[2H])c(Cl)c1 | 89 nM | – | – | 11 µL/min/mg | 0.7 µL/min/mg | – | – | – | – | – | – |
| CN1[C@@H]2CCC[C@H]1C[C@H](NC(=O)c1cc(-c3ccc(C(F)(F)F)cc3)n(C)n1)C2 | 133 nM | 6250 nM | 993 nM | – | – | 23.4 L/kg | 1.2 µL/min/mg | 20.4 mL/min/kg | 3.2 µL/min/mg | 140 nM | 86.6% |
| CN1CCC(NC(=O)c2cc(-c3ccc(C(F)(F)F)cc3)n(C)n2)CC1 | 139 nM | 4960 nM | 1040 nM | – | – | 25.7 L/kg | – | 41.5 mL/min/kg | – | 2970 nM | 70.1% |
